Four compounds from patent publication US5985926A, “Method for inhibiting intracellular viral replication” (Cell Therapeutics, Inc., priority 1997, dated 1999) can be followed below.

The test system of data set [1] is CMV promoter in 293-EBNA cells. Kind of data set: AP reporter gene expression from CMV promoter, 293-EBNA cells stably transfected with pCMV.AP. The format is cell-based, human cytomegalovirus; human cells. The settings on record: for inhibition of AP expression (CMV promoter): in words; for IC50: Homo sapiens, 293-EBNA stably transfected with pCMV.AP (FIG. 6), read-out: IC50, AP reporter gene expression (pCMV.AP). The procedure:
An assay for measuring the anti-viral activity of the compounds involves testing the abilities of the compounds to inhibit gene expression directed by specific viral promoters in cell lines. Specifically, a plasmid construct, pCMV.AP, using the human cytomegalovirus (CMV) enhancer and promoter to direct the expression of the secreted human placental alkaline phosphatase reporter gene were transformed into a tumor cell line (e.g., 293-EBNA cells). The cultured cells were treated with various concentrations of the compounds. The expression of the alkaline phosphatase (AP) reporter gene in the individual cultures can then be measured by following the change in absorbance at A405 of the cell conditioned media in the presence of a suitable substrate (e.g., ortho-nitrophenol phosphate) (Berger et al., Gene 66:1,1988).
The construction of expression vectors for secreted placental alkaline phosphatase (sPAP) was performed by obtaining a mammalian episomal expression vector pBL3, derived from the plasmids pMEP4 and pCEP4 (Invitrogen Corp). Specifically, a 600 bp Spe I--Kpn I fragment spanning the CMV promoter from pCEP4 and a 9500 bp Xba I--Kpn I vector fragment from pMEP4 were isolated and ligated together to form pBL3. Full length sPAP cDNA was amplified by PCR using the plasmid pGEM4Z/SEAP (ATCC) as template with primers 5'-[…]-3' (SEQ ID NO. 1) and 5'-[…]-3' (SEQ ID NO. 2). The PCR product was then digested with Xba I and Sal I and inserted between the Nhe I site and the Xho I site within the multiple cloning region of pBL3. The resulting plasmid was designated as PCMV.AP.
(A reporter such as luciferase makes a cellular process visible.)

The test system of data set [2] is 293-EBNA cells. The experiment in a line: Viability of 293-EBNA cells, Alamar Blue. The format is cell-based, human. Here is the method:
Cell viability was measured by a colorimetric assay that uses Alamar Blue dye (Alamar, Inc.) to report cell proliferation, viability and cytotoxicity. This vital dye indicates cell activity by serving as substrate for mitochrondrial dehydrogenases for the formation of soluble dyes which can be quantitated by determining the difference in absorbance between A570 and A600 using a plate reader.
Cell viability was measured by a […] assay that uses Alamar Blue dye (Alamar, Inc.) to report cell proliferation, viability and cytotoxicity. This vital dye indicates cell activity by serving as substrate for mitochrondrial dehydrogenases for the formation of soluble dyes which can be quantitated by determining the difference in absorbance between A570 and A600 using a plate reader.
This example illustrates that CT2576 suppressed both tat-dependent and TNF-α induced HIV-LTR transcription with an IC50 of approximately 10 μM. Study of the effects of CT2576 on cell toxicity was performed using the Alamar Blue™ dye (Alamar Biosciences) according to the manufacturer's instructions. CT2576 was not toxic to 293-EBNA cells at concentrations up to 35 μM. To show CT2576 can inhibit HIV expression, CT2576 was tested for the ability to block HIV p24 antigen expression in chronically or acutely infected cells. Specifically, CT2576 inhibited the TNF-α and IL-6 induced and the constitutive expression of HIV in the chronically infected U1 cells and in peripheral blood lymphocytes (PBL) freshly infected with a HIV strain from a clinical isolate with an IC50 of approximately 1 μM. Pharmacological inhibition of synthesis of selected PL may therefore be a novel therapeutic approach to suppression of HIV replication.

The test system of data set [3] is PA (phosphatidic acid) formation in tat-transfected and tar-transfected cells. The experiment in a line: PA mass / myrPA formation in serum-stimulated EB293, 293tat and 293tar cells. The format is cell-based, human. The procedure:
Transformed and serum-stimulated cells were measured for total PA mass according to the methods described herein. […] The columns in FIG. 18 represent: (1) EB293 cells plus serum, (2) EB293 cells plus serum plus CT3556 (10 μM.), (3) 293tat cells plus serum, (4) 293tat cells plus serum plus CT3556 (10 μM.), (5) 293tar cells plus serum, and (6) 293tar cells plus serum plus CT3556 (10 μM.).
This procedure begins with those cells that would be normally infected with a virus, such as a retrovirus. However, it is not necessary to utilize a cell line containing a retroviral genome, such as U1 cells. In view of the necessity to utilize containment facilities when using an infected cell line, it is preferable to utilize a macrophage cell line that is not infected. Examples of appropriate macrophage cell lines include, U937, THP1, U1, and P288s (available from standard sources, such as ATCC). The cells are stimulated with a stimulant with or without a candidate drug. Examples of stimulants include 3-5% serum, such as fetal calf serum, or tumor necrosis factor (TNF) (e.g., 20 ng/ml) both of which are standard laboratory reagents. After a time course (within 5 minutes, preferably within 1 minute), the cells are immersed in ice cold methanol to stop any cellular signaling reactions.
One must first quantitatively and qualitatively separate PAs from the other lipids found in serum by a chemical extraction of lipids and high performance liquid chromatography (HPLC) to separate and detect PAs. Chemical extraction can be accomplished, for example, by the method of Bligh et al. (Canadian J. Biochem. Physiol. 37:911-917, 1959) or that of Folch et al. (J. Biol. Chem. 226:497-509, 1957). Briefly, the method of Bligh et al. involves an organic extraction of lipids from biological tissue homogenates or fluids. One volume of sample and three volumes of methanol:chloroform (2:1) are vigorously shaken for 2 min. One volume of chloroform is added and then shaken vigorously for 30 sec. One volume of water is added and then shaken vigorously for 30 sec. The mixture is filtered and the upper aqueous layer is discarded. The lower organic layer contains a mixture of lipid classes. The method of Folch et al. involves the extraction of lipids from biological tissue homogenates or body fluids. One volume of sample plus 20 volumes of chloroform:methanol (2:1) are vigorously shaken for 2 min. The mixture is filtered and an amount of 0.1 N KCl equal to 20% of the extraction mixture volume is added and the mixture is shaken vigorously for 2 min. The aqueous and organic phases are allowed to separate. The upper aqueous layer is discarded. The lower organic layer contains a mixture of lipid classes. Free fatty acids and neutral lipids can be separated from phospholipids by normal phase high performance liquid chromatography (HPLC) by modifying the method of Van Kessel et al. (Biochim et Biophys Acta 486:524-530, 1977). This method involves separation of lipids into their major classes by normal phase (silica) high performance liquid chromatography (HPLC). A 5 micron, 25 cm×0.45 cm silica HPLC column is connected to a binary solvent delivery system followed with a UV detector. The lipid sample is injected on the column and a solvent gradient is run at 1.0 ml/min. […]
Transformed and serum-stimulated cells were measured for total PA mass according to the methods described herein. […]

The test system of data set [4] is HIV-LTR promoter (tat transactivation) in 293-EBNA cells. The experiment in a line: AP reporter gene expression from HIV-LTR promoter with tat expression vector, 293-EBNA cells. The data set is classed as cell-based, HIV; human cells. The following applies: 293-EBNA cells, HIV promoter, in words. An excerpt:
The plasmid construct, pHIV.AP, using the human immunodeficiency virus (HIV) long terminal repeat (LTR) promoter (derived from pU3R-III CAT, Sodroski et al., Science 227:171, 1985) to direct the expression of the sPAP reporter gene, was made by replacing the CMV promoter region from pCMV.AP with the HIV-LTR promoter. PHIV.AP was co-transfected with pSV2tat72, an expression vector for the 72 amino acids tat protein from HIV (Frankel and Pabo, Cell 55:1189-1193, 1988), into 293-EBNA cells (Invitrogen). The cultured cells were treated with various concentrations of the compounds. The expression of the alkaline phosphatase (AP) reporter gene in the individual cultures was measured by following change in absorbance at 405 nm of the cell conditioned media in the presence of a suitable substrate (e.g., ortho-nitrophenol phosphate) (Berger et al., Gene 66:1-10, 1988).
We set up a cell-based system with a cell line cotransfected with an expression plasmid using HIV-1-LTR promoter to direct synthesis of AP reporter gene and an expression plasmid to direct synthesis of the first 72 amino acids of tat protein. Plasmid pREP7 (Invitrogen) was converted to pREP7b by deleting 2,040 bp EBNA-1 coding region and by replacing the pBR322 origin of replication (ori) with the pBluescript KS (Stratagene) ori region. The cDNA for secreted placental alkaline phosphatase (AP) was generated by PCR with the primers (5'-[…]-3')(SEQ ID NO. 3) and (5'-[…]-3') (SEQ ID NO. 4)using the plasmid pGEM-4Z/PLAP489 (American Type Culture Collection) as the template. The 2,000 bp Xba I-Sal I fragment obtained was ligated into a Nhe I/Xho I vector derived from pREP7b to generate the plasmid pREP7b.AP. The 44 bp Xba I-Bgl II fragment from plasmid pMEP4 (Invitrogen)and the 36 bp BamH I-Kpn I fragment from pREP7 were ligated into the Xba I-Kpn I vector fragment from pREP7b.AP to generate the plasmid pMCS.AP. The 720 bp Xho I-Hind III fragment encoding the HIV-LTR promoter from the plasmid pU3R-III-CAT (Sodroski et al., Science 227:171-173, 1985) was ligated into the Xho I-Hind III vector fragment of PMCS.AP to generate the plasmid pHIV.AP. The CMV promoter was derived from the 600 bp Spe I-Asp718 I fragment from pCEP4 (Invitrogen). The 360 bp SV40 early promoter fragments were produced from pSV2tat72 (Frankel et al., Cell 55:1189-1193,1988) by PCR using the primers (5'-[…]-3') (SEQ ID NO. 5) and (5'-[…]-3') (SEQ ID NO. 6). The 480 bp phosphoglycerate kinase (PGK) promoter fragment was amplified from human placental genomic DNA (Promega, Madison, Wis.) based on published sequence (Pfeifer et al., Science 246:810-813, 1990) using the primers (5'-[…]-3') (SEQ ID NO. 7) and (5'-[…]-3') (SEQ ID NO. 8). The above fragments were ligated into the Xba I-Asp718 I vector fragment of pHIV.AP to generate pHIV2.AP, pHIV3.AP, pCMV.AP, pSVE.AP and PPGK.AP respectively. The tat-expression plasmid directed by HIV-LTR promoter, pHIV.tat, was generated by inserting the 400 bp EcoRV-HindIII fragment from pHIV.AP into the PvuII-HindIII vector fragment from pSV2tat72 (Frankel et al., Cell 55:1189-1193, 1988).
Transient transfections with various expression plasmids were performed on a human kidney embryonic cell line 293-EBNA (Invitrogen) using the cationic lipid DOTAP (Boehringer Mannheim). The cell culture media were changed 24 hr after transfection into a serum-free medium AIM V (Life Technologies) before addition of compounds or TNF-α (PeproTech) at the appropriate concentrations. AP activity measured by a colorimetric assay (Berger et al., Gene 66:1-10, 1988) was performed 19-24 hr later.

The subject of data set [5] is 293-EBNA cells.

The term IC50 denotes the concentration at which inhibition is half-maximal.

As to `Cn1cnc2c1c(=O)n(CCCCCCCCCC(O)CNc1ccccc1)c(=O)n2C` (stereo not drawn) [CT3528, N-(11-phenylamino-10-hydroxundecyl)-3,7-dimethylxanthine], in data set [1], the “inhibition of AP expression (CMV promoter)” value is “No appreciable inhibition of AP expression”. In addition, the “cytotoxic effect on 293-EBNA cells (Alamar Blue)” value (shortened to “cytotoxic effect”) in the data set with 293-EBNA cells [2] was “no significant cytotoxic effect”.
For `CCCCCCCCNCCCCCCCCCCCn1c(=O)c2c(ncn2C)n(C)c1=O` [CT3556, 1-(11-N-octylaminoundecyl)-3,7-dimethylxanthine], in data set [3] (10 μM, tat-transfected cells stimulated with serum), the “inhibition of myrPA formation in stimulated cells” value is “inhibited myrPA formation in stimulated cells”. In data set [3] (CT3556 10 μM (FIG. 18)), the “PA mass, 293tar cells plus serum” value is given as “significant drop in PA mass” and the “PA mass, 293tat cells plus serum” value is “increase in PA was blocked”.
Take `CCCCCCNCCCC(O)CCCCCCCn1c(=O)c2c(ncn2C)n(C)c1=O` (stereo not drawn) [CT2575, 1-(11-hexylamino-8-hydroxyundecyl)-3,7-dimethylxanthine]: the “inhibition of AP expression (HIV-LTR promoter)” value in data set [4] is on record as “inhibit HIV promoter driven expression”. In data set [1], the half-maximal inhibitory concentration (IC50) turned out to be 3 µM and the “inhibition of AP expression (CMV promoter)” value was “inhibit CMV promoter driven expression”. For the same compound, the “cytotoxic effect” value in the data set with 293-EBNA cells [2] is “no significant cytotoxic effect”. Besides, the “effect on cell viability / cytotoxicity” value with 293-EBNA cells [5] is recorded as “minimal cytotoxic effects”.
Take `CCCCCCCCCCNCC(O)CCCCCCCn1c(=O)c2c(ncn2C)n(C)c1=O` (stereo not drawn) [CT2571, 1-(9-decylamino-8-hydroxynonyl)-3,7-dimethylxanthine]: the IC50 in data set [1] amounted to 8 µM. The “cytotoxic effect” value in the data set on 293-EBNA cells [2] is “cytotoxic”.
